Source: patent US10525016B2, “Nutritional compositions containing an elevated level of inositol and uses thereof” (Mead Johnson Nutrition Company, priority 2015, dated 2020)

How the values were obtained:
[1] = test system: oligodendrocytes (Oligo); assay: inositol on purified oligodendroglial cultures: Oligo number (MBP staining); assay type: cell-based
Description: FIG. 1 illustrates the functional implications of inositol in oligodendroglia survival and proliferation. Inositol was added to purified oligodendroglial cultures and cells were analyzed for effects on proliferation, survival and differentiation by immunohistochemistry under the fluorescent microscopy. OPCs were analyzed by staining with antibody against PDGFRa and visualized in green fluorescence; and oligodendrocytes with that against MBP in red. […] Depletion of inositol in the medium results in a fifty percent loss of oligodendrocyte precursor cells and thirty percent loss in oligodendrocytes.
It may relate to the different mechanisms by which the OPCs respond to higher level of inositol and to the PDGF. Taken together, it is a novel finding that inositol at higher level promotes OPCs differentiation into mature Oligo.

[2] = test system: primary hippocampal neurons; assay: synaptic development in primary hippocampal neurons (Bassoon/Homer immunostaining); assay type: cell-based, rats
Description: Primary hippocampal neurons were prepared from rats at E18. In brief, dissected hippocampi were incubated in 0.05% trypsin at 37° C. for 20 minutes and plated at a density of ˜30,000 cells per coverslip. Dissociated cells were plated on poly-L-lysine and incubated in a cell culture incubator with 5.0% CO2. Cytosine arabinoside was added at a final concentration of 2 μM per well 2 days in vitro to prevent glia cell overgrowth. For studies of inositol, neurons were either grown in inositol-free medium or in inositol-free medium supplemented with 40 μm inositol. After day 4 in vitro, neurons were grown either in inositol-free medium or in inositol-free medium supplemented with 40 μm or 200 μM inositol. At the first time of treatment at 4 days in vitro, the entire medium was exchanged for fresh medium containing nutrients, or control medium without nutrients. At the time of subsequent nutrient additions, approximately ½ of the medium was exchanged and replaced with nutrient-containing medium or control medium without nutrients. Neurons were processed for immunostaining at 14 days in vitro, i.e. after 10 days of chronic treatment. […] We determined this both by automated quantitative immunostaining for the presynaptic marker Bassoon or excitatory postsynaptic Homer, as shown in FIGS. 6 and 7 (p<0.05). […] Further, the experiment supports that the size of postsynaptic sites is larger when inositol is added, indicating more efficient synaptic transmission (p<0.05) (see, FIG. 9). Confocal imaging was performed on a Leica TCS SPE DM2500 microscope equipped with one spectral PMT. Fluorochromes imaged include Alexa 488, Alexa 555, and Alexa 647 (Invitrogen). Green fluorescence represents Bassoon presynaptic, red Homer postsynaptic, blue MAP2 dendrites. […] There was noticeable lack of growth and synapses which was visible while imaging.

[3] = test system: oligodendrocyte precursor cells (OPCs); assay: inositol on purified oligodendroglial cultures: OPC number (PDGFRa staining); assay type: cell-based
Description: FIG. 1 illustrates the functional implications of inositol in oligodendroglia survival and proliferation. Inositol was added to purified oligodendroglial cultures and cells were analyzed for effects on proliferation, survival and differentiation by immunohistochemistry under the fluorescent microscopy. OPCs were analyzed by staining with antibody against PDGFRa and visualized in green fluorescence; and oligodendrocytes with that against MBP in red. […] Depletion of inositol in the medium results in a fifty percent loss of oligodendrocyte precursor cells and thirty percent loss in oligodendrocytes. […] A culture condition containing 40 μM inositol in which the count of the numbers of living OPCs was normalized as 1, as a baseline control. The beginnings of culture of OPCs are equal in terms of OPC number in culture dish in all conditions. Inositol was added to each OPC culture at zero, 200 nM, 1 μM, 10 μM, 40 μM, 100 μM, and 200 μM. Since the OPCs only respond to platelet-derived growth factor PDGF, a potent mitogen, for proliferation, the condition containing 40 μM inositol and PDGF was set as a positive control. […] Such a positive effect reached about 70% of that in the positive control. […] The results are graphically illustrated in FIG. 2

[4] = test system: oligodendrocyte-DRG cocultures; assay: dose-response of inositol on oligodendrocyte-DRG coculture: myelin deposition and extent; assay type: cell-based
Description: FIG. 4 illustrates the utility of dual-fluorescence labeling of OPCs in green and oligodendrocytes (Oligo) in red (left), as well as myelin deposition along the DRG neuronal fibers in red (right). It is to examine a dose-response of the inositol on oligodendrocyte-DRG coculture. Inositol was added to purified oligodendrocyte-DRG cocultures and cells were analyzed for effects on proliferation, survival differentiation and myelination. […] FIG. 5 illustrates the inositol effects on the control myelin extent in a dose-responsive manner. In the coculture system, neurofibers were included to validate the effects on myelin extent. […] Taken together, oligodendroglia rely on neuronal inositol for survival, proliferation, differentiation and the instruction of the generation of the appropriate number of […] internodes and the extent of wrapping.

[5] = increasing inositol from 40 μM to 200 μM, 14 days in vitro, p<0.05
[6] = depletion of inositol in the medium

## PDGF [reference compound]
[1]; condition containing PDGF with 40 μM inositol, p<0.05
  Oligo number vs baseline at 40 μM inositol: decreased significantly

## O[C@H]1[C@H](O)[C@@H](O)[C@H](O)[C@@H](O)[C@H]1O [inositol]
[2]; depletion of inositol
  health of the neurons (confocal imaging): poor health of the neurons
[2]; elevated level of inositol supplement
  formation of functional synapses and overall neuron health: significantly enhances the formation of functional synapses and overall neuron health
[2]; [5]
  density of synaptic specializations, excitatory postsynaptic Homer: substantially elevates
  density of synaptic specializations, presynaptic marker Bassoon: substantially elevates
[2]; inositol 40 μM
  overall health of neurons (confocal imaging): significantly promotes the overall health of neurons
[2]; inositol 200 μM
  overall health of neurons (confocal imaging): significantly promotes the overall health of neurons
[2]; inositol added, p<0.05
  density of synaptic sites where both Bassoon and Homer co-localize: strong inositol effect
  size of postsynaptic sites: larger
[1]; absence of inositol, p<0.05
  quantification of Oligo numbers vs baseline at 40 μM inositol: significantly decreased
[1]; [6]
  loss in oligodendrocytes: thirty
[1]; inositol 200 nM, p<0.05
  quantification of Oligo numbers vs baseline at 40 μM inositol: significantly decreased
[1]; inositol 200 μM, p<0.05
  Oligo numbers vs baseline at 40 μM inositol: rise and appear a statistical significance
[3]; 200 μM compared to the 40 μM in the base medium
  OPC and oligodendrocyte health: significantly increased
[3]; [6]
  loss of oligodendrocyte precursor cells: fifty
[3]; inositol 200 nM, p<0.05
  quantification of OPCs vs baseline control at 40 μM inositol: significantly decreased
[3]; inositol 1 μM, p<0.05
  quantification of OPCs vs baseline control at 40 μM inositol: significantly decreased
[3]; inositol 10 μM, p<0.05
  quantification of OPCs vs baseline control at 40 μM inositol: significantly decreased
[3]; inositol 200 μM
  positive effect on OPCs number relative to the positive control (40 μM inositol and PDGF): about 70%
[3]; inositol 200 μM, p<0.05
  OPCs number vs baseline control at 40 μM inositol: significantly increased
[3]; inositol at zero, p<0.05
  quantification of OPCs vs baseline control at 40 μM inositol: significantly decreased
[3]; inositol supplementation in purified oligodendroglia cultures
  oligodendroglial survival: significantly promotes oligodendroglial survival
[3]; zero to 200 μM
  overall response of OPC number to inositol: dose-dependent manner
[4]; absence of inositol
  myelin deposition along DRG neuronal fibers: the amount of red labeling and appearance of myelin were inappropriate
[4]; absence of inositol, compared to control base medium at 40 μM
  myelin internodes formed (myelin extent): few myelin internodes were formed
[4]; baseline condition, 40 μM inositol
  myelin deposition along DRG neuronal fibers: myelin was wrapping around the neuronal fiber
[4]; inositol 200 μM
  myelin deposition along DRG neuronal fibers: more myelin has been deposited along the neuronal fibers
[4]; inositol 200 μM compared to the controls
  myelin internodes formed (myelin extent): more and longer myelin internodes
